Where no end group is shown, it is not given here.

One test deals with DRB1*03:01 (Homo sapiens, UniProt P01903+P01911, A100K/A102G/A103R/A169T/F55Y/I96L/K41T/L162R/M171V/P40S/Q125H/Q178H/Q39Y/R42S/S66N/T106N/T262R/W38E/Y61H). The test can be described thus: MHC class II binding assay. The conditions noted are these: allele DRB1*03:01. The text has this: In the next series of experiments, we were interested in investigating whether differences could be detected in the phenotypes of peanut-specific T cells from symptomatic and non-symptomatic donors using tetramer reagents. The use of tetramers allows detection of peanut epitope-specific T cells on a single cell level. Using MHC class II binding assays, we determined peptide binding to MHC class II molecules that were expressed in our donor cohorts and for which tetramer reagents could be manufactured. Based on donor-specific HLA expression, cell sample availability and tetramer allele reagent availability, we performed tetramer staining in 2 non-symptomatic and 2 symptomatic donors (Table 3). A representative tetramer staining with tetramer #2 and tetramer #1 as an HLA-mismatch control of donor 2377 is shown in Fig 3A.
DRB1*03:01, sequence (P01903 26-254, other chains not shown): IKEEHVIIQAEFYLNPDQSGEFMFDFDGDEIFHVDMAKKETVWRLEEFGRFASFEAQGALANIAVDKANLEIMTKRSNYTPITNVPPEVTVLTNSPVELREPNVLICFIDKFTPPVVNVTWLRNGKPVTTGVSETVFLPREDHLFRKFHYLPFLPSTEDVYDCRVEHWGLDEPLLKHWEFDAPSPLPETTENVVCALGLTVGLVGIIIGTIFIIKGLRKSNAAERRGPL

The subject of test [1] is PBMC from peanut allergic and non-allergic donors (IFNγ production). The test can be described thus: IFNγ ELISPOT with individual peptides after 14-day in vitro expansion (epitope mapping). The conditions noted are these: SFC per 10^6 PBMC, individual peptide 10 μg/ml, 24 h, after 14-day culture; for IFNg Average SFC (allergics): allergic donors; for IFNg Average SFC (controls): non-allergic controls. The class given is cell-based, human. As for the experimental part:
(§1) For in vitro expansions, PBMCs were thawed and cultured in RPMI 1640 (Omega Scientific, Tarzana, CA) supplemented with 5% human AB serum (Gemini Bio-Products, West Sacramento, CA) at a density of 2 × 10^6 cells per mL in 24-well plates (Corning, San Diego, CA) and stimulated with peanut extract (10 μg/ml) or peptide pools at 5 μg/mL. Cells were kept at 37°C, 5% CO2, and additional IL-2 (10 U/mL; ThermoFisher, San Diego, CA) was added every 3 days after initial antigenic stimulation. On day 14, cells were harvested and reactivity against peanut extract (10 μg/ml), peanut specific peptide pools (5 μg/ml) and individual peptides (10 μg/ml) was assessed. The production of IL-5 and IFNγ post-stimulation with peanut extract was analyzed in dual ELISPOT assays. Flat-bottom 96-well nitrocellulose plates (Millipore, Bedford, MA) were prepared according to the manufacturer’s instructions and coated with either 10 μg/ml of both anti-human IL-5 (clone TRFK5) and anti-human IFNγ (clone 1-D1K) or anti-human IL-10 (clone 9D7) and anti-human IL-17 (clone MT44.6) (Mabtech, Cincinnati, OH). PBMC were then incubated at a density of 1 × 10^5/well either with peptide pools (5 μg/ml) or individual peptides (10 μg/ml), peanut extract (10 μg/ml), PHA (10 μg/ml), or medium containing 0.25% DMSO (corresponding to the highest percentage of DMSO in the pools/peptides condition) as a control. After 24 h, cells were removed, and plates were incubated with a cocktail containing either biotinylated anti-human IL-5 (1:50 dilution) (clone 5A10) and horseradish peroxidase (HRP)-conjugated anti-human IFNγ (1:200 dilution) (clone 7-B6-1) or biotinylated anti-human IL-17 (1:200 dilution) (clone MT504) anti-human alkaline phosphatase (AP)-conjugated IL-10 (1:200 dilution) (clone 12G8) (Mabtech, Cincinnati, OH) at 37°C. After 2 h, spots corresponding to the biotinylated IL-5 Ab were developed by incubation with Alkaline-phosphatase-Complex (Vector Laboratories, Burlingame, CA) and then visualized by applying the Vector Blue Alkaline Phosphatase Substrate Kit III (Vector Laboratories, Burlingame, CA) according to the manufacturer’s instructions. Spots corresponding to the HRP-conjugated anti-human IFNγ Ab were visualized by incubation with 3-amino-9-ethylcarvazole solution (Sigma-Aldrich, St. Louis, MO). Spots were counted by computer-assisted image analysis (KS-ELISPOT reader, Zeiss, Munich). Each assay was performed in triplicate. The level of statistical significance was determined with a Student t test using the mean of triplicate values of the response against relevant pools or individual peptides versus the response against the DMSO control. Criteria for response positivity were 20 spot-forming cells (SFCs)/10^6 PBMC, p ≤ 0.05, and a stimulation index (SI) ≥ 2. SFCs are measured per 10^5 PBMC, subsequently readings are background subtracted and multiplied by 10 to be expressed as SFC per million PBMC. T cell epitope mapping was performed to determine epitopes from the major peanut allergens Ara h 1, 2 and 3, recognized by peanut allergic (n = 11) and non-allergic (n = 10) donors. As these studies were performed with samples obtained from pediatric patients, available blood sample volumes were limiting. To overcome this limitation, small pools of predicted peptides matched to the HLA molecules expressed in each donor were tested. For each donor, class II binding affinity predictions were performed using algorithms available through the IEDB (www.iedb.org)[18], to identify the top 6 predicted binders for each of the alleles expressed at the four HLA class II loci (DRB1, DRB3/4/5, DQB1, and DPB1). Accordingly, the screening load for each donor was reduced from 400 peptides to a maximum of 48 peptides (6 peptides x ≤8 class II molecules, less for homozygous donors). The six top predicted peptides for each allele were used to generate allele-specific pools, which were in turn used to expand peanut-specific cells in vitro. […]

Test [2] deals with PBMC from peanut allergic and non-allergic donors (IL-5 production). Kind of test: IL-5 ELISPOT with individual peptides after 14-day in vitro expansion (epitope mapping). The class given is cell-based, human. The settings on record: SFC per 10^6 PBMC, individual peptide 10 μg/ml, 24 h, after 14-day culture; for IL-5 Average SFC (allergics): allergic donors; for IL-5 Average SFC (controls): non-allergic controls. As for the experimental part:
as §1

ARQQWELQGDRRCQS [Peptide 17] gave an IC50 at DRB1*03:01 of 1470 nM.
For the sequence “SSELHLLGFGINAEN [Ara h 1 15-mer, position 523]”, in test [1], the “IFNg Average SFC (allergics)” value was 0 SFC and the “IFNg Average SFC (controls)” value worked out at 0 SFC. Besides, in test [2], the “IL-5 Average SFC (allergics)” value is on record as 492 SFC and the “IL-5 Average SFC (controls)” value amounted to 0 SFC.
Consider “RSSENNEGVIVEVSK [Ara h 1 15-mer, position 356]”, for which the “IFNg Average SFC (controls)” value in test [1] is 0 SFC. Further, the “IL-5 Average SFC (controls)” value in test [2] is recorded as 40 SFC.
On the same counts, the results for “GLRILSPDEEDESSR [Ara h 3 15-mer, position 281]” are 293 SFC and 403 SFC.
For the sequence “DADNILVIQQGQATV [Ara h 1 15-mer, position 231]”, in test [1], the “IFNg Average SFC (allergics)” value was determined as 0 SFC and the “IFNg Average SFC (controls)” value is reported as 37 SFC. Further, in test [2], the “IL-5 Average SFC (allergics)” value is recorded as 25 SFC and the “IL-5 Average SFC (controls)” value is 0 SFC.
On to “PHFNSKAMVIVVVNK [Ara h 1 15-mer, position 446]”, for which, in test [1], the “IFNg Average SFC (allergics)” value turned out to be 0 SFC and the “IFNg Average SFC (controls)” value was found to be 0 SFC. For the same sequence, in test [2], the “IL-5 Average SFC (allergics)” value was found to be 113 SFC and the “IL-5 Average SFC (controls)” value is 0 SFC.
For “ALFLLAAHASARQQW [Ara h 2 15-mer, position 11]”, in test [1], the “IFNg Average SFC (allergics)” value is listed as 0 SFC and the “IFNg Average SFC (controls)” value amounted to 545 SFC. Besides, in test [2], the “IL-5 Average SFC (allergics)” value is given as 11 SFC and the “IL-5 Average SFC (controls)” value stood at 270 SFC.
On the same counts, the results for “QGRGYFGLIFPGCPS [Ara h 3 15-mer, position 96]” are 0 SFC, 0 SFC, 0 SFC and 43 SFC.
On the same counts, the results for “SGFTPEFLAQAFQVD [Ara h 3 15-mer, position 266; P19 pool member]” are 0 SFC, 81 SFC, 394 SFC and 240 SFC.
On to “ILVAPALFLLAAHAS [Ara h 2 15-mer, position 6]”, for which, in test [1], the “IFNg Average SFC (allergics)” value came out at 0 SFC and the “IFNg Average SFC (controls)” value was 108 SFC. Moreover, in test [2], the “IL-5 Average SFC (allergics)” value is listed as 0 SFC and the “IL-5 Average SFC (controls)” value came to 40 SFC.
Take “SGFAQEFLQHAFQVD [Ara h 3 15-mer, position 242]”: in test [1], the “IFNg Average SFC (allergics)” value is 0 SFC and the “IFNg Average SFC (controls)” value was 88 SFC. Besides, in test [2], the “IL-5 Average SFC (allergics)” value turned out to be 124 SFC and the “IL-5 Average SFC (controls)” value turned out to be 97 SFC.
With “CMCEALQQIMENQSD [Ara h 2 15-mer, position 116]”, the “IFNg Average SFC (controls)” value in test [1] is reported as 0 SFC. Further, the “IL-5 Average SFC (controls)” value in test [2] is 59 SFC.
With “LAGENSVIDNLPEEV [Ara h 3 15-mer, position 486; P19 pool member]”, in test [1], the “IFNg Average SFC (allergics)” value is 0 SFC and the “IFNg Average SFC (controls)” value came out at 0 SFC. In addition, in test [2], the “IL-5 Average SFC (allergics)” value was 306 SFC and the “IL-5 Average SFC (controls)” value came out at 23 SFC.
Turning to “EQGAIVTVKGGLRIL [Ara h 3 15-mer, position 271]”, in test [1], the “IFNg Average SFC (allergics)” value was found to be 0 SFC and the “IFNg Average SFC (controls)” value came to 220 SFC. In test [2], the “IL-5 Average SFC (allergics)” value is reported as 0 SFC and the “IL-5 Average SFC (controls)” value is 182 SFC.
With “RCTKLEYDPRCVYDT [Ara h 1 15-mer, position 61]”, in test [1], the “IFNg Average SFC (allergics)” value is given as 0 SFC and the “IFNg Average SFC (controls)” value worked out at 820 SFC. In test [2], the “IL-5 Average SFC (allergics)” value is 195 SFC and the “IL-5 Average SFC (controls)” value came out at 467 SFC.
For “QRSRQFQNLQNHRIV [Ara h 1 15-mer, position 201]”, in that order: 0 SFC, 102 SFC, 0 SFC and 216 SFC.
“KAMVIVVVNKGTGNL [Ara h 1 15-mer, position 451]”: in test [1], the “IFNg Average SFC (allergics)” value was determined as 42 SFC and the “IFNg Average SFC (controls)” value came out at 28 SFC. Also, in test [2], the “IL-5 Average SFC (allergics)” value is reported as 108 SFC and the “IL-5 Average SFC (controls)” value came out at 0 SFC.
For “AFQVDDRQIVQNLRG [Ara h 3 15-mer, position 276]”, in that order: 0 SFC, 0 SFC, 85 SFC and 10 SFC.
For the sequence “KAMVIVVINKGTGNL [Ara h 1 15-mer, position 451]”, in test [1], the “IFNg Average SFC (controls)” value is 43 SFC. Moreover, the “IL-5 Average SFC (controls)” value in test [2] worked out at 53 SFC.
As to “QEFLRYQQQQGSRPH [Ara h 3 15-mer, position 206]”, in test [1], the “IFNg Average SFC (allergics)” value is 13 SFC and the “IFNg Average SFC (controls)” value is recorded as 61 SFC. For the same sequence, in test [2], the “IL-5 Average SFC (allergics)” value came out at 0 SFC and the “IL-5 Average SFC (controls)” value came to 144 SFC.
Consider “HVQVVDSNGNRVYDE [Ara h 3 15-mer, position 406; P19 pool member]”, for which, in test [1], the “IFNg Average SFC (allergics)” value stood at 0 SFC and the “IFNg Average SFC (controls)” value amounted to 240 SFC. Moreover, in test [2], the “IL-5 Average SFC (allergics)” value is given as 385 SFC and the “IL-5 Average SFC (controls)” value was found to be 0 SFC.
As to “FQNLQNHRIVQIEAR [Ara h 1 15-mer, position 206]”, in test [1], the “IFNg Average SFC (allergics)” value is given as 13 SFC and the “IFNg Average SFC (controls)” value came out at 0 SFC. For the same sequence, in test [2], the “IL-5 Average SFC (allergics)” value was found to be 64 SFC and the “IL-5 Average SFC (controls)” value turned out to be 0 SFC.
In the case of “EYVAFKTDSRPSIAN [Ara h 3 15-mer, position 471; P19 pool member]”, in test [1], the “IFNg Average SFC (allergics)” value is reported as 27 SFC and the “IFNg Average SFC (controls)” value came to 539 SFC. In addition, in test [2], the “IL-5 Average SFC (allergics)” value worked out at 651 SFC and the “IL-5 Average SFC (controls)” value is given as 225 SFC.
For “QEFLRYQQQSRQSRR [Ara h 3 15-mer, position 206; P19 pool member]”, in that order: 15 SFC, 72 SFC, 295 SFC and 47 SFC.
Regarding “SNAPQEIFIQQGRGY [Ara h 3 15-mer, position 86]”, in test [1], the “IFNg Average SFC (controls)” value was found to be 0 SFC. Also, the “IL-5 Average SFC (controls)” value in test [2] stood at 45 SFC.
As for “GHALRIPSGFISYIL [Ara h 1 15-mer, position 261]”, in test [1], the “IFNg Average SFC (allergics)” value turned out to be 0 SFC and the “IFNg Average SFC (controls)” value is 0 SFC. In addition, in test [2], the “IL-5 Average SFC (allergics)” value was found to be 0 SFC and the “IL-5 Average SFC (controls)” value worked out at 1080 SFC.

In general, IC50 refers to the concentration that inhibits the measured activity by half. Read a low IC50 as higher potency.

The values above are taken from paper PMC6179248, “Peanut-specific T cell responses in patients with different clinical reactivity” (PLoS ONE, 2018).
